Experimental data taken from patent US4382923A, “Tetrapeptide acylhydrazides, their production and use” (Takeda Chemical Industries, Ltd., priority 1980, dated 1983).

Legend:
Slc:ICR mice = assay: Phenylquinone writhing method; type: in vivo; conditions: oral route; reference
Procedure: Phenylquinone writhing method
The compound (I) of the present invention was administered orally or subcutaneously to Slc:ICR mice weighing 18-20 g. According to the method of E. Siegmund, R. Cadmus and G. Lu [Proc. Soc.Exp.Biol, Med. 95, 729 (1957)], 0.02% phenylquinone in 5% ethanol saline was injected intraperitoneally in a dose of 0.1 ml/10 g body weight 30 min. after administration of the compound (I). The frequency of abdominal writhing was then counted for 20 min. Analgesic effect was indicated by comparing test group with control group.

[1] = intravenous route; cited from earlier work
[2] = direct intracerebral administration; cited from earlier work

Compound	effective dose, analgesic activity (abdominal writhing) (Slc:ICR mice)	analgesic effect [1]	morphinomimetic activity [2]
CN1CC[C@]23c4c5ccc(O)c4O[C@H]2[C@@H](O)C=C[C@H]3[C@H]1C5 [morphine]	2.5 mg/kg		
β-endorphin (YGGFMTSEKSQTPLVTLFKNAIIKNAYKKGE; Beta-endorphin; UniProt P01189 237-267, looked up) [polypeptide consisting of 31 amino acid moieties, peptide-type analgesic]		overt analgesic action	
H-Tyr-Gly-Gly-Phe-Met-OH (H-YGGFM-OH) [enkephalin, pentapeptide isolated from the pig brain]		do not produce analgesic effects	show morphinomimetic activity
H-Tyr-Gly-Gly-Phe-Leu-OH		do not produce analgesic effects	show morphinomimetic activity
